Measured values: article PMC4707489, “A novel cell-penetrating peptide suppresses breast tumorigenesis by inhibiting β-catenin/LEF-1 signaling” (Scientific Reports, 2016)

Key:
Format in all cases: cell-based, human
MCF-7 cells [1] = assay: Cell growth (CCK-8)
Description: Cell growth was analyzed using 2-(2-methoxy-4-nitrophenyl)-3-(4-nitroph enyl)-5-(2,4-disulfophenyl)-2H-tetrazolium, monosodium salt, and the Cell Counting Kit-8 (CCK-8, Sigma). […] After culturing for another 48 hr, cell growth was analyzed by CCK-8 and the optical density was detected at 450 nm. The growth ratio was normalized to the cells without treatment.

MDA-MB-231 cells = assay: Colony-formation assay; conditions: MDA-MB-231, 100 μmol/l, 14 day post-transfection (Fig. 3e)
Description: (§1) Transwell chambers of […] pore size were used in the in vitro invasion assay. MCF-7 and MDA-MB-231 cells were seeded onto the upper chamber and incubated with TAT-NLS-BLBD-6 and TAT-NLS-BLBD-6m peptide and 10% fetal bovine serum medium were added to the bottom chamber well. After 24 hr, cells invading the lower chamber were fixed with 4% paraformaldehyde solution and stained with 0.1% crystal violet for 30 min at 37 °C. Three random field images were obtained by microscopy, and the number of invading cells were counted. For the migration assay, MCF-7 and MDA-MB-231 cells were seeded onto 6-well plates. After 24 hr, an artificial wound was created using a 10-μl pipette tip, and the wound was incubated with TAT-NLS-BLBD-6 or TAT-NLS-BLBD-6m for 24 hr at 37 °C. The images of wound healing were captured by microscopy, and the wound healing distances were calculated by Image J (U.S. National Institutes of Health, Bethesda, MD, USA). For the colony formation assay, MCF-7 and MDA-MB-231 cells were seeded into 10-cm dishes with the medium containing TAT-NLS-BLBD-6 or TAT-NLS-BLBD-6m. After 2 weeks, cells were fixed with 4% paraformaldehyde solution and stained with 0.1% crystal violet for 30 min at 37 °C.

MCF-7 cells [2] = assay: Colony-formation assay; conditions: MCF-7, 100 μmol/l, 14 day post-transfection (Fig. 3e)
Description: as §1

## H-TAT-NLS-ATDEMIPF-NH2 [TAT-NLS-BLBD-6]
MCF-7 cells [1]; 75 μmol/l peptide, MCF-7, CCK-8, means of three experiments (Fig. 1b)
  cell growth: inhibited the growth
MCF-7 cells [1]; MCF-7, indicated concentrations, 24, 48 and 72 hr (Fig. 1c,d)
  time and dose dependence of cell growth: inhibited breast cancer cell growth in a time- and dose-dependent manner
MDA-MB-231 cells
  colony formation: inhibited the mobility and proliferation
MCF-7 cells [2]
  colony formation: inhibited the mobility and proliferation
